pIC50: −log10 of the molar value.
Assays:
PPAR beta/delta = molecular target: T1, PPAR beta/delta (Homo sapiens, UniProt Q03181); assay: Target selectivity counterscreen, PPAR β/δ reporter assay; type: cell-based; details: receptor agonist at ~EC80
T1 construct: host or cells: engineered reporter cells of the kit (analogous to the human PPARα kit)
T1 sequence (Q03181 1-441): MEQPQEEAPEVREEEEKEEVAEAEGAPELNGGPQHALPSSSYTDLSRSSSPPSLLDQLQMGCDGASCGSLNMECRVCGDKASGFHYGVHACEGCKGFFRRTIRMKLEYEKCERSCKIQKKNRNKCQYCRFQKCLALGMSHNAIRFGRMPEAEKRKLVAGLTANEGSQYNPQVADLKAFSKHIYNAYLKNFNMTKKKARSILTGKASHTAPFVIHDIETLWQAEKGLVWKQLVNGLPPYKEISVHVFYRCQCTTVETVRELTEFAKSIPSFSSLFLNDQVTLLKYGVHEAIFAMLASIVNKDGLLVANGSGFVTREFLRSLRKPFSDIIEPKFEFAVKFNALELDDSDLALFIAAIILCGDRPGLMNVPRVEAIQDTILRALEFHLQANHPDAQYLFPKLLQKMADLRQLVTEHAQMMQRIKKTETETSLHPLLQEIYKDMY
Experimental: (§1) Target Selectivity Assays
(§2) To determine species selectivity, a Mouse PPARα Reporter Assay System was used (Indigo Biosciences, Cat. #M00111). Activity of test compounds to antagonize or agonize other isoforms of human PPAR, for example β/δ and γ, were assessed using the corresponding kits from Indigo Biosciences (Cat. #IB00121 and #IB00101, respectively). In addition to PPAR activity, compounds were also screened for activity against other nuclear hormone receptors including Estrogen Receptor β, Glucocorticoid Receptor and Thyroid Receptor β using commercially available kits (Indigo Biosciences, Cat. #IB00411, IB00201 and IB01101, respectively). Each assay system from Indigo Biosciences uses technology analogous to the human PPARα kit, with the variance being that the cells used for each assay were engineered to over-express the receptor of interest. In addition, the appropriate receptor agonist (included with each kit) was used at ˜EC80 for assays in which antagonist potency was being assessed.

B16F10 melanoma cells = assay: In vivo cancer model: B16F10 model of pulmonary metastasis; set-up: species or system C57BL/6 mice; details: oral doses 0.3, 3 and 30 mg/kg daily, day 21, FIG. 1
Experimental: In Vivo Cancer Model: B16F10 Model of Pulmonary Metastasis
B16F10 cells were cultured in standard growth media, harvested when approximately 50% confluent and injected into C57BL/6 mice via the tail vein (50,000 cells per mouse in 200 μL). Mice were treated daily with test compound. On day 21, mice were euthanized. Lungs were harvested and placed into Fekete's solution overnight to facilitate visualization of the tumors. Black nodules were enumerated.
Statistics were performed by ANOVA with Dunnett's Multiple Comparison Test post-hoc to determine statistical differences from vehicle treatment group. * denotes P<0.05, while *** denotes P<0.001.

Estrogen Receptor β = molecular target: T2, Estrogen Receptor β (Homo sapiens, UniProt Q92731); assay: Target selectivity counterscreen, Estrogen Receptor β reporter assay; type: cell-based; details: receptor agonist at ~EC80
T2 construct: host or cells: engineered reporter cells of the kit
Experimental: as §1, §2

PPAR gamma = molecular target: T3, PPAR gamma (Homo sapiens, UniProt P37231); assay: Target selectivity counterscreen, PPAR γ reporter assay; type: cell-based; details: receptor agonist at ~EC80
T3 construct: host or cells: engineered reporter cells of the kit (analogous to the human PPARα kit)
T3 sequence (P37231 1-505): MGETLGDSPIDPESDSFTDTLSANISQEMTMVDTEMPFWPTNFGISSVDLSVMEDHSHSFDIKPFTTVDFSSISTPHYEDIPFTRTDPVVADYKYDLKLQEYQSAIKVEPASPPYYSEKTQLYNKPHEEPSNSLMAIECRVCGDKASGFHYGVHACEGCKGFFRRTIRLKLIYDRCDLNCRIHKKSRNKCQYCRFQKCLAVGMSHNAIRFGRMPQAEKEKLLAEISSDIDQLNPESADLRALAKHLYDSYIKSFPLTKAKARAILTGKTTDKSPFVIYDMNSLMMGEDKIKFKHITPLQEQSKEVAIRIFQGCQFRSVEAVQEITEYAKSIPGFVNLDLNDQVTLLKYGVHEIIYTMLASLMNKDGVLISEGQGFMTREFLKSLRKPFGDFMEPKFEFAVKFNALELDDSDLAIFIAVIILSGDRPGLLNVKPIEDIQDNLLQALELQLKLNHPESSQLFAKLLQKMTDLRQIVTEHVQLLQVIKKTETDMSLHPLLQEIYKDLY
Experimental: as §1, §2

Glucocorticoid Receptor = molecular target: T4, Glucocorticoid Receptor (Homo sapiens, UniProt P04150); assay: Target selectivity counterscreen, Glucocorticoid Receptor reporter assay; type: cell-based; details: receptor agonist at ~EC80
T4 construct: host or cells: engineered reporter cells of the kit
T4 sequence (P04150 1-777): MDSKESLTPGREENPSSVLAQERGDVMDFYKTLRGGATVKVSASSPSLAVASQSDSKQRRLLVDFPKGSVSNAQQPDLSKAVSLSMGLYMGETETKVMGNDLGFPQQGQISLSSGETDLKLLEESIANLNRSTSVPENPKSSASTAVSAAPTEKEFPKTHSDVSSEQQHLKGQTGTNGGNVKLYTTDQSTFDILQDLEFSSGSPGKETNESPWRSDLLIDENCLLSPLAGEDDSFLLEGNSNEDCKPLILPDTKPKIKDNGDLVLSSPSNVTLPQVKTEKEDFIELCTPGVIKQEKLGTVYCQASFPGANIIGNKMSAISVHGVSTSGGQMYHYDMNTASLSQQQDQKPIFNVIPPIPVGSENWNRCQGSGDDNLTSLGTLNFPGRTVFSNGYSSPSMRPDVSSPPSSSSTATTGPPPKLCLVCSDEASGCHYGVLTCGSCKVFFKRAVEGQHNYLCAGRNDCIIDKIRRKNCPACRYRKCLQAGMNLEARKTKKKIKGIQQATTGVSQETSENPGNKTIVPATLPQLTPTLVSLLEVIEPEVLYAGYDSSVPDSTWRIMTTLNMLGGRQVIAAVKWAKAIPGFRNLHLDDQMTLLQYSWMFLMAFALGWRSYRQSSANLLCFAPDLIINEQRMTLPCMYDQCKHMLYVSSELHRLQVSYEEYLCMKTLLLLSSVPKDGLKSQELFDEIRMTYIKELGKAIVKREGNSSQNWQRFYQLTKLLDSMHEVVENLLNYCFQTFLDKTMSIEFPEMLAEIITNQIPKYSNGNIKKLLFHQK
Experimental: as §1, §2

T2 sequence (Q92731 whole entry): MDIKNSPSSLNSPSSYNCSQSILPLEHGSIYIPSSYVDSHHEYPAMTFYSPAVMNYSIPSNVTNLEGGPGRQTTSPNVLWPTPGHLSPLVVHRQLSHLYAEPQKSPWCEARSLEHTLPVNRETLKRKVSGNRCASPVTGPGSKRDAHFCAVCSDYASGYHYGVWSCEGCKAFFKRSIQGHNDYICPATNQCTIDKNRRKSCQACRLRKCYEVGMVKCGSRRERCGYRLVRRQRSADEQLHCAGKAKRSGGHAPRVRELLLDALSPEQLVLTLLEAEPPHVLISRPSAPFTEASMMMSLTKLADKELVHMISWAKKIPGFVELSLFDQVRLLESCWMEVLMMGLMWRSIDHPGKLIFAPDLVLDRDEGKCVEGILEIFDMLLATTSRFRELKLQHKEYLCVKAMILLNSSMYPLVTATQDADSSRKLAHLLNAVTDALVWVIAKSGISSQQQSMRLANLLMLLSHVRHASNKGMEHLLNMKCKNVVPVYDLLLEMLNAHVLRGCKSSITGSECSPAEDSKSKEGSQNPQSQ

pIC50 (PPAR beta/delta): 4.88 | pIC50 (Estrogen Receptor β): 4.71 | pIC50 (PPAR gamma): 4.40 | pIC50 (Glucocorticoid Receptor): 4.74
SMILES: CCOc1ccc(-c2cccc(CCCc3nn(Cc4ccc(C(C)(C)C)cc4)c(=O)n3CC)c2)cc1CC(=O)O [Example 6, 2-(3′-(3-(1-(4-(tert-Butyl)benzyl)-4-ethyl-5-oxo-4,5-dihydro-1H-1,2,4-triazol-3-yl)propyl)-4-ethoxy-[1,1′-biphenyl]-3-yl)acetic acid]
metastasis of B16F10 melanoma cells to the lung (black nodules enumerated) (B16F10 melanoma cells): inhibition of metastasis
